Data: patent publication US11884693B2, “1,3-acetonedicarboxylate-derived amphipathic compounds and uses thereof” (INDUSTRY-UNIVERSITY COOPERATION FOUNDATION HANYANG …, priority 2022, dated 2024)

Assays:
[1] = Critical micelle concentration by fluorescence staining using diphenylhexatriene (DPH); assay type: physicochemical; details: aqueous solution
Description: A method of measuring the CMC is not particularly limited, but a method widely known in the art may be used, and for example, the CMC may be measured by a fluorescent staining method using diphenylhexatriene (DPH).
(§1) To check the characteristics of ACAs synthesized according to the synthesis methods of Examples 1 to 4, critical micelle concentrations (CMCs) of the ACAs and hydrodynamic diameters (DO of the formed micelles were measured.
(§2) Specifically, the critical micelle concentration (CMC) was measured by fluorescence staining using diphenylhexatriene (DPH), and the hydrodynamic diameters (Dh) of the micelles formed by each of the preparations (1.0% by weight) were measured by means of a dynamic light scattering (DLS) experiment. The measured results are shown in Table 1 in comparison to DDM and octyl glucoside neopentyl glycol (OGNG), two existing amphipathic molecule (detergent).

[2] = Water solubility of the detergents; assay type: physicochemical
[3] = Micelle size by dynamic light scattering (DLS); assay type: physicochemical; details: micelles at 1.0% by weight
Description: A method of measuring the radius of the micelles is not particularly limited, but methods widely known in the related art may be used. For example, the radius of the micelles may be measured using a dynamic light scattering (DLS) experiment.
as §1, §2
In addition, the size distribution of the micelles formed by ACAs was examined by DLS. As a result, it was confirmed that the size of the micelles increased with an increasing length of the alkyl chain. This is because a compound having a cylindrical structure easy for self-assemblage is formed as more carbon is added to the hydrophobic end (FIG. 3).

[4] = molecular target: T1, melibiose permease of Salmonella typhimurium (MelBSt) (Salmonella typhimurium, UniProt P30878); assay: MelBSt extraction and thermal solubilization, SDS-PAGE and immunoblotting; assay type: biochemical; details: 1.5% (w/v) detergent, 90 min incubation at 55° C.
T1 construct: made in house; host or cells: E. coli DW2 (ΔmelB, ΔlacZY), plasmid pK95ΔΔHB/WT MelBSt/CH10
T1 sequence (P30878 whole entry): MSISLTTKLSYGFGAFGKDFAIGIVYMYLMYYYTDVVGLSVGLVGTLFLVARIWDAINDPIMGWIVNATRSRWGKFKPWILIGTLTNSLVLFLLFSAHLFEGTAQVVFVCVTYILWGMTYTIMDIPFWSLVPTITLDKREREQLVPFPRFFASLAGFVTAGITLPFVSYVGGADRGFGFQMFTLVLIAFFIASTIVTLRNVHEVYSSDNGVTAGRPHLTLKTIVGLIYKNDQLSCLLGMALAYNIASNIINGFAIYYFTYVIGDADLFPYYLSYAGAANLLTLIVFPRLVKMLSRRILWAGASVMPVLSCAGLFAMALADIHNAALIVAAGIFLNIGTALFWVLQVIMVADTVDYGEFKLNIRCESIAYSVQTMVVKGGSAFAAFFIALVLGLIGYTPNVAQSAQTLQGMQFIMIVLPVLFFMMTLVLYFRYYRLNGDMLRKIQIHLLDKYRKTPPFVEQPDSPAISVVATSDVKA
Description: Melibiose and other galactoside transporter MelB was produced by E. coli DW2 strain (ΔmelB and ΔlacZY) harboring pK95ΔΔHB/WT MelBSt/CH10 plasmid. The plasmid contains the gene encoding the wild-type melibiose permease of Salmonella typhimurium (MelBSt) with a 10-His tag at the C-terminus. Cell growth and membrane preparation were carried out as described in A. S. Ethayathulla, et al., Nat. Commun. 2014, 5, 3009. Protein assay was carried out with a Micro BCA kit (Thermo Scientific). The membrane samples containing MelBSt (10 mg/mL) in a solubilization buffer (20 mM sodium phosphate, pH 7.5, 200 mM NaCl, 10% glycerol and 20 mM melibiose) were mixed with each individual detergent (ACA-SCs, ACA-ACs and DDM) at 1.5% (w/v). Protein extractions were carried out at 0° C. for 90 min. The protein samples were further incubated at three different temperatures (45, 55, and 65° C.) for 90 min. After extraction and incubation, insoluble fractions were removed by ultracentrifugation at 355,590 g in a Beckman Optima™ MAX Ultracentrifuge using a TLA-100 rotor for 45 min at 4° C. […] membrane proteins without ultracentrifugation and detergent extracts after the ultracentrifugation with the same volume were loaded for analysis by SDS-15% PAGE, and immunoblotting with a HisProbe-HRP antibody (Thermo Scientific) was conducted for visualizing the MelBSt.

[5] = molecular target: T2, mouse u-opioid receptor (MOR) (Mus musculus, UniProt P42866); assay: MOR long-term stability, [3H]-diprenorphine ligand binding; assay type: biochemical; details: 0.1 wt % detergent, 4° C., after 8 hours of incubation
T2 construct: made in house
T2 sequence (P42866 whole entry): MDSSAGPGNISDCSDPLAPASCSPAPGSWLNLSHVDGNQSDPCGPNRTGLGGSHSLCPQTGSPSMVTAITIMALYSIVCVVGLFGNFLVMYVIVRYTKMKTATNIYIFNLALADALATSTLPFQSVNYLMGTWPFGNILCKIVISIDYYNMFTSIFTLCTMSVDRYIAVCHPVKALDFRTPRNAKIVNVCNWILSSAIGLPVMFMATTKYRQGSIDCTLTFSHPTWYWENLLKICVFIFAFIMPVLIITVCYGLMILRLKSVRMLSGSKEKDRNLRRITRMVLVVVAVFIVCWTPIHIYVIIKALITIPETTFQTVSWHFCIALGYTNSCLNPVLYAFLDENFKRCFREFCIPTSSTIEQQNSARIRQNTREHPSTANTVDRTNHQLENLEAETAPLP
Description: To perform a long-term stability analysis, MOR in 0.1% LMNG was purified. […] MOR in each detergent was incubated for five days at 4° C. and its ligand binding capacity was measured at regular intervals during the incubation. The ligand binding ability of the receptor was measured by adding ˜1 nM of radioactive [^3H]-diprenorphine (DPN). The [^3H]-DPN-containing mixture was immobilized to an anti-flag resin and the resin was collected using GF/B filter paper and scintillation fluid was added into the filter paper. Receptor-bound […] was measured with a scintillation counter (Beckman).

CCCCCCCCCCCCCC(COC1OC(CO)C(O)C(O)C1O)C(OC1OC(CO)C(O)C(O)C1O)C(CCCCCCCCCCCCC)COC1OC(CO)C(O)C(O)C1O (mixture of isomers) [ACA-SC13]
CMC [1]: ~0.005 mM | CMC (% by weight) [1]: ~0.0005 % by weight | Solubility (% by weight) [2]: ~5 % by weight | Rh (nm) [3]: 13.9 ± 1.1 nm

CCCCCCCCCCCC(CCCCCCCCCCC)(COC1OC(CO)C(O)C(O)C1O)C(CCOC1OC(CO)C(O)C(O)C1O)OC1OC(CO)C(O)C(O)C1O (mixture of isomers) [ACA-AC11]
CMC [1]: ~0.014 mM | CMC (% by weight) [1]: ~0.0013 % by weight | Solubility (% by weight) [2]: ~10 % by weight | Rh (nm) [3]: 3.3 ± 0.2 nm | MelBSt solubilization ability [4]: approximately 70%

CCCCCCCCCCCC(COC1OC(CO)C(O)C(O)C1O)C(OC1OC(CO)C(O)C(O)C1O)C(CCCCCCCCCCC)COC1OC(CO)C(O)C(O)C1O (mixture of isomers) [ACA-SC11]
CMC [1]: ~0.010 mM | CMC (% by weight) [1]: ~0.0009 % by weight | Solubility (% by weight) [2]: ~10 % by weight | Rh (nm) [3]: 2.9 ± 0.3 nm | MelBSt solubilization ability [4]: approximately 60%

CCCCCCCCCCC(CCCCCCCCCC)(COC1OC(CO)C(O)C(O)C1O)C(CCOC1OC(CO)C(O)C(O)C1O)OC1OC(CO)C(O)C(O)C1O (mixture of isomers) [ACA-AC10]
CMC [1]: ~0.019 mM | CMC (% by weight) [1]: ~0.0017 % by weight | Solubility (% by weight) [2]: >10 % by weight | Rh (nm) [3]: 2.7 ± 0.2 nm

CCCCCCC(CCCCCC)(CO[C@@H]1O[C@H](CO)[C@@H](O)[C@H](O)[C@H]1O)CO[C@@H]1O[C@H](CO)[C@@H](O)[C@H](O)[C@H]1O [OGNG, octyl glucoside neopentyl glycol, reference compound]
CMC [1]: ~1.0 mM | CMC (% by weight) [1]: ~0.058 % by weight | Solubility (% by weight) [2]: >10 % by weight | Rh (nm) [3]: 4.4 ± 0.3 nm

CCCCCCCCCCCCO[C@@H]1O[C@H](CO)[C@@H](O[C@H]2O[C@H](CO)[C@@H](O)[C@H](O)[C@H]2O)[C@H](O)[C@H]1O [DDM, n-dodecyl-β-D-maltopyranoside, reference compound]
CMC [1]: 0.17 mM | CMC (% by weight) [1]: 0.0087 % by weight | Solubility (% by weight) [2]: >10 % by weight | Rh (nm) [3]: 3.4 ± 0.3 nm | residual activity of MOR [5]: 10%

CCCCCCCCCCCCC(COC1OC(CO)C(O)C(O)C1O)C(OC1OC(CO)C(O)C(O)C1O)C(CCCCCCCCCCCC)COC1OC(CO)C(O)C(O)C1O (mixture of isomers) [ACA-SC12]
CMC [1]: ~0.007 mM | CMC (% by weight) [1]: ~0.0007 % by weight | Solubility (% by weight) [2]: ~10 % by weight | Rh (nm) [3]: 8.3 ± 0.1 nm

CCCCCCCCCCCCC(CCCCCCCCCCCC)(COC1OC(CO)C(O)C(O)C1O)C(CCOC1OC(CO)C(O)C(O)C1O)OC1OC(CO)C(O)C(O)C1O (mixture of isomers) [ACA-AC12]
CMC [1]: ~0.012 mM | CMC (% by weight) [1]: ~0.0011 % by weight | Solubility (% by weight) [2]: ~9 % by weight | Rh (nm) [3]: 8.9 ± 0.7 nm
